Consider 23 compounds from article PMC10500703 (Journal of medicinal chemistry, 2021).

Values after ≈ are worked out from the molar mass of the structure shown. Read-outs that look alike come from different tables or passages of the source.

The test system of data set [1] is Mtb H37Rv. As to the kind of experiment: microbe, parasite or virus in culture. The conditions noted are these: Mycobacterium tuberculosis.
A short description of data set [2]: Mouse PK, intravenous dosing. The format is in vivo. Particulars: for CLb: total body clearance from whole blood; for half-life at 24 h: in vivo, iv, 2 mg/kg.
A further data set concerns non-replicating Mtb. The data set is classed as cell-based, Mycobacterium tuberculosis.
The format of data set [3] is in vivo, mouse. The conditions noted are these: for exposure on oral dosing: oral dosing (data not shown).
For the next data set, the system named is replicating Mtb. The format is cell-based, Mycobacterium tuberculosis.
A further data set is described as follows: physchem. Particulars: pH 7.
The subject of another data set is Mtb isolate S1125. As to the kind of experiment: microbe, parasite or virus in culture. The data set is classed as cell-based. The conditions noted are these: Mycobacterium tuberculosis.
The next data set can be described thus: LogD. The data set is classed as physicochemical.
The conditions of data set [4]: aqueous pH 7.4 phosphate buffer simulating thermodynamic conditions.
Another data set concerns Mtb H37RvMA. The data set is classed as cell-based, Mycobacterium tuberculosis.
Data set [5] is described as follows: Microsomal clearance. The format is in vitro ADME. The conditions noted are these: mouse microsomes.
The subject of another data set is Mtb Erdman strain. The data set is classed as cell-based, Mycobacterium tuberculosis.
Data set [6] is described as follows: Microsomal clearance. The data set is classed as in vitro ADME. The conditions noted are these: rat microsomes.
The next data set has as its system Human plasma protein. As to the kind of experiment: Human plasma protein binding. The data set is classed as in vitro ADME. The conditions noted are these: fraction unbound.
In a further data set the test system is intracellular Mtb. The format is cell-based, Mycobacterium tuberculosis. The conditions noted are these: read-out: IC90 against intracellular Mtb.
Data set [7] relates to Mtb H37Rv.
The nature of data set [8]: Microsomal clearance. The format is in vitro ADME. The conditions noted are these: human microsomes.

For the compound `CS(=O)(=O)NC(=O)CCc1cn(-c2ccc(Br)cc2)nc1-c1cccc(Cl)c1` [Compound 14, 3-(1-(4-bromophenyl)-3-(3-chlorophenyl)-1H-pyrazol-4-yl)-N-(methylsulfonyl)propanamide], in the data set with Mtb H37Rv [1], the MIC was determined as 2.3 µM (≈ 1.11 µg/mL).

On to `CCS(=O)(=O)NC(=O)CCc1cn(-c2ccc(Br)cc2)nc1-c1ccc(Cl)cc1` [Compound 33, 3-(1-(4-bromophenyl)-3-(4-chlorophenyl)-1H-pyrazol-4-yl)-N-(ethylsulfonyl) propanamide], for which the MIC in the data set on Mtb H37Rv [1] is 12.5 µM (≈ 6.21 µg/mL).

`CS(=O)(=O)NC(=O)CCc1cn(-c2ccc(Br)cc2)nc1-c1cccnc1` [Compound 17, 3-(1-(4-bromophenyl)-3-(pyridin-3-yl)-1H-pyrazol-4-yl)-N-(methylsulfonyl)propanamide]: the CLb in data set [2] (intravenous 2 mg/kg) turned out to be 178 mL/min/kg.

With `CS(=O)(=O)NC(=O)CCc1cn(-c2ccc(F)cc2)nc1-c1ccc(Cl)cc1` [Compound 3, 3-(3-(4-chlorophenyl)-1-(4-fluorophenyl)-1H-pyrazol-4-yl)-N-(methylsulfonyl)propanamide], in the data set on Mtb H37Rv [1], the MIC was at least 50 µM.

As for `CS(=O)(=O)NC(=O)NCc1cn(-c2ccc(Cl)cc2)nc1-c1ccncc1` [Compound 43, N-(((1-(4-chlorophenyl)-3-(pyridin-4-yl)-1H-pyrazol-4-yl)methyl)carbamoyl)methanesulfonamide], the half-life (as a rule, the time needed for the level to fall by half in the phase considered) at 24 h in data set [2] is 2 h. The CLb in [2] (intravenous 2 mg/kg) is reported as above 200 mL/min/kg.

For the compound `CS(=O)(=O)NC(=O)CCc1cn(-c2ccc(Br)cc2)nc1-c1ccc(Cl)cc1` [Compound 1, 3-(1-(4-bromophenyl)-3-(4-chlorophenyl)-1H-pyrazol-4-yl)-N-(methylsulfonyl)propanamide], the “activity against non-replicating Mtb” value with non-replicating Mtb is “not active”. The “exposure on oral dosing” value in [3] is listed as “high exposure”. Also, the half-life at 24 h in data set [2] was 2 h. This compound returned a CLb in data set [2] (intravenous 2 mg/kg) of 1.18 mL/min/kg. Further, in the data set on replicating Mtb, the “log CFU reduction” value is recorded as 2–2.5 log CFU.

The compound `O=c1[nH]c(CCc2cn(-c3ccc(Br)cc3)nc2-c2ccc(Cl)cc2)no1` [Compound 47, 3-(2-(1-(4-bromophenyl)-3-(4-chlorophenyl)-1H-pyrazol-4-yl)ethyl)-1,2,4-oxadiazol-5(4H)-one] gave an MIC against Mtb H37Rv [1] (336 h) of at least 50 µM.

In turn, `CS(=O)(=O)NC(=O)NCc1cc(-c2ccc(Br)cc2)oc1-c1ccncc1` [Compound 58, N-(((5-(4-bromophenyl)-2-(pyridin-4-yl)furan-3-yl)methyl)carbamoyl)methanesulfonamide] registered a CLb in [2] (intravenous 2 mg/kg) above 200 mL/min/kg.

For the compound `CS(=O)(=O)NC(=O)CCc1cn(-c2ccc(Br)cc2)nc1C1CCN(C=O)CC1` [Compound 22, 3-(1-(4-bromophenyl)-3-(1-formylpiperidin-4-yl)-1H-pyrazol-4-yl)-N-(methylsulfonyl)propanamide], the MIC against Mtb H37Rv [1] was at least 50 µM.

Consider `CS(=O)(=O)NC(=O)C1CC1c1cn(-c2ccc(Cl)cc2)nc1-c1ccncc1` (stereo not shown) [Compound 40, 2-(1-(4-chlorophenyl)-3-(pyridin-4-yl)-1H-pyrazol-4-yl)-N-(methylsulfonyl)cyclopropane-1-carboxamide], for which the MIC with Mtb H37Rv [1] fell in the range of 12.5 to 19 µM (≈ 5.21 to 7.92 µg/mL). This compound also yielded a CLb in data set [2] (intravenous 2 mg/kg) above 200 mL/min/kg.

For `CS(=O)(=O)NC(=O)CCc1cn(-c2ccc(Br)cc2)nc1-c1ccc([N+](=O)[O-])cc1` [Compound 23, 3-(1-(4-bromophenyl)-3-(4-nitrophenyl)-1H-pyrazol-4-yl)-N-(methylsulfonyl)propanamide], in the data set with Mtb H37Rv [1], the MIC is 12.5 µM (≈ 6.17 µg/mL).

Compound `CS(=O)(=O)NC(=O)/C=C/c1cn(-c2ccc(Br)cc2)nc1-c1ccncc1` [Compound 39, (E)-3-(1-(4-bromophenyl)-3-(pyridin-4-yl)-1H-pyrazol-4-yl)-N-(methylsulfonyl)acrylamide] gave an MIC against Mtb H37Rv [1] of 1.2 to 4.7 µM (≈ 0.537 to 2.1 µg/mL). For the same compound, in the data set “physchem”, the concentration in solution (solubility) was 185 µM (≈ 82.8 µg/mL).

For the compound `CS(=O)(=O)NC(=O)CCc1cn(-c2ccc(Br)cc2)nc1-c1ccncc1` [Compound 16, 3-(1-(4-bromophenyl)-3-(pyridin-4-yl)-1H-pyrazol-4-yl)-N-(methylsulfonyl)propanamide], the MIC against Mtb isolate S1125 lay in the range of 15 to 30 µM (≈ 6.74 to 13.5 µg/mL). Moreover, in the data set with non-replicating Mtb, the “activity against non-replicating Mtb” value is “not active”. Also, the CLb in data set [2] (intravenous 2 mg/kg) was above 200 mL/min/kg. For the same compound, the “log CFU reduction” value in the data set with replicating Mtb is recorded as 2–2.5 log CFU.

Compound `CC(CC(=O)NS(C)(=O)=O)c1cn(-c2ccc(Cl)cc2)nc1-c1ccncc1` (stereo not shown) [Compound 37, 3-(1-(4-chlorophenyl)-3-(pyridin-4-yl)-1H-pyrazol-4-yl)-N-(methylsulfonyl)butanamide] gave an MIC against Mtb H37Rv [1] of at least 50 µM.

In data set [2] (intravenous 2 mg/kg), `CS(=O)(=O)NC(=O)CCc1cn(-c2ccc(Br)cc2)nc1C1CCOCC1` [Compound 20, 3-(1-(4-bromophenyl)-3-(tetrahydro-2H-pyran-4-yl)-1H-pyrazol-4-yl)-N-(methylsulfonyl)propanamide] came in with a CLb of 145 mL/min/kg.

Turning to `CS(=O)(=O)NC(=O)C1CC1c1cn(-c2ccc(Br)cc2)nc1-c1ccncc1` (stereo not shown) [Compound 41, 2-(1-(4-bromophenyl)-3-(pyridin-4-yl)-1H-pyrazol-4-yl)-N-(methylsulfonyl)cyclopropane-1-carboxamide], the MIC against Mtb H37Rv [1] lay within 12.5 to 19 µM (≈ 5.77 to 8.77 µg/mL).

The compound `CS(=O)(=O)NC(=O)CCc1cn(-c2ccc(Cl)cc2)nc1-c1ccncc1` [Compound 35, 3-(1-(4-chlorophenyl)-3-(pyridin-4-yl)-1H-pyrazol-4-yl)-N-(methylsulfonyl)propanamide] displayed an MIC against Mtb H37Rv [1] of 6.25 µM (≈ 2.53 µg/mL).

`CS(=O)(=O)NC(=O)/C=C/c1cn(-c2ccc(Cl)cc2)nc1-c1ccncc1` [Compound 38, (E)-3-(1-(4-chlorophenyl)-3-(pyridin-4-yl)-1H-pyrazol-4-yl)-N-(methylsulfonyl)acrylamide] had a CLb in data set [2] (intravenous 2 mg/kg) above 200 mL/min/kg.

`CS(=O)(=O)NC(=O)OCc1cn(-c2ccc(Cl)cc2)nc1-c1ccncc1` [Compound 45, (1-(4-chlorophenyl)-3-(pyridin-4-yl)-1H-pyrazol-4-yl)methyl (methylsulfonyl)carbamate] came in with an MIC in the data set on Mtb H37Rv [1] of 12.5 µM (≈ 5.09 µg/mL). The CLb in data set [2] (intravenous 2 mg/kg) is reported as above 200 mL/min/kg.

Take “3-(1,3-bis(4-chlorophenyl)-1H-pyrazol-5-yl)-N-(methylsulfonyl)propanamide [Compound 8]”: the pH-dependent lipophilicity (LogD) – broadly, lipophilicity at a set pH, counting ionised and neutral species – in “LogD” worked out at 2.0. Besides, in data set [4], the solubility (commonly the concentration that dissolves in the medium under given conditions) is 100 µM. For the same compound, the MIC in the data set with Mtb H37RvMA is listed as 4 µM. The “Microsomal clearance % remaining, Mouse” value in “Microsomal clearance [5]” was determined as 87%. The “activity against non-replicating Mtb” value in the data set with non-replicating Mtb is “not active”. Moreover, the “MIC against the Mtb Erdman strain” value against Mtb Erdman strain came to 9.1 µM. For the same compound, the “Microsomal clearance % remaining, Rat” value in the data set “Microsomal clearance [6]” was above 99%. In the data set with Human plasma protein, the “Human PPB fu” value is reported as 0.023. In addition, in the data set on intracellular Mtb, the concentration for an effect of 90% (IC90) – broadly, the concentration needed for an effect of 90% – came to 11 µM. Further, the “exposure on oral dosing” value in data set [3] is reported as “high exposure”. For the same compound, the bioavailability – broadly, dose-corrected exposure relative to a reference, in per cent – in data set [3] (oral dosing, even at high doses) is listed as above 95%. In data set [2] (intravenous 2 mg/kg), the “AUC0 – t” value was 4883 µmol·min/L; the Vd (in general, the apparent volume that relates the amount in the body to the concentration in plasma or blood) is recorded as 1.2 L/kg; the t½ terminal is 3.6 h; the CLb is 2.56 mL/min/kg. This compound also displayed an MIC against Mtb H37Rv [7] of 4.7 µM. Moreover, the “log CFU reduction” value with replicating Mtb was 2–2.5 log CFU. In the data set “Microsomal clearance [8]”, the “Microsomal clearance % remaining, Human” value amounted to 98%.

Compound `CS(=O)(=O)NC(=O)CCc1cn(-c2ccc(C(F)(F)F)nc2)nc1-c1ccc(Cl)cc1` [Compound 10, 3-(3-(4-chlorophenyl)-1-(6-(trifluoromethyl)pyridin-3-yl)-1H-pyrazol-4-yl)-N-(methylsulfonyl)propanamide] displayed a CLb in [2] (intravenous 2 mg/kg) of 67.4 mL/min/kg.

On to `CS(=O)(=O)NC(=O)CCc1nn(-c2ccc(Br)cc2)cc1-c1ccc(Cl)cc1` [Compound 53, 3-(1-(4-bromophenyl)-4-(4-chlorophenyl)-1H-pyrazol-3-yl)-N-(methylsulfonyl)propanamide], for which, in the data set with Mtb H37Rv [1], the MIC was at least 50 µM.

Consider `CS(=O)(=O)NC(=O)CCc1cc(-c2ccc(Br)cc2)nn1-c1ccc(Cl)cc1` [Compound 51, 3-(3-(4-bromophenyl)-1-(4-chlorophenyl)-1H-pyrazol-5-yl)-N-(methylsulfonyl)propanamide], for which the “exposure on oral dosing” value in data set [3] was “high exposure”. Also, the CLb in data set [2] (intravenous 2 mg/kg) came out at 3.13 mL/min/kg.
